In patent publication US11168319B1, “Plant cell culture” (Inari Agriculture Technology, Inc., priority 2017, dated 2021):
Like-named read-outs stand apart in the source and are kept apart here.

Tests used:
maize B104 protoplasts = experiment: Cell division rate by EdU staining (% EdU); settings: for EdU staining mean %: Ca^2+ 100 mM, glutathione 0.5 mM, 90 h
Description: Cell division rates are expressed as “% EdU” (percentage of cells displaying the EdU signal relative to the total cell count).
Cell division was monitored, e.g., by microscopic observations. […] Evidence of cell division was observed by microscopy and included increased cell or protoplast size, bulging membranes, and large groups of organelles occupying the separating daughter cells. Quantification of cell division was carried out using fluorescent staining. […] Cells that are the result of cellular division in the presence of EdU were identified by the resulting green fluorescent signal, which can be quantified by various means, e.g., with a microplate reader, cell counter, or cell sorter.
In a separate experiment, maize HiIIA protoplasts were grown in 24-well plates using YPIM B-liquid medium containing 100 millimolar Ca^2+ and 20 micromolar EdU. Identical plates were incubated under hypoxia (5% oxygen by volume, 26 degrees Celsius, 80% relative humidity) or ambient oxygen (21% oxygen by volume, 26 degrees Celsius, 80% relative humidity). Entire wells (250 microliters) were taken for EdU detection at four time points. The contents of each well was centrifuged and the pellet subjected to the Click-iT™ EdU Alexa Fluor™ 488 Imaging Kit (catalogue number C10337, Thermo Fisher Scientific, Waltham, Mass.) fluorescent labelling protocol. The labelled protoplasts were resuspended in YPIM B-medium and samples analyzed on a Nexcelom Cellometer (Nexcelom Bioscience LLC, Lawrence, Mass.). This assay was developed to detect the EdU signal from the nucleus of a cell resulting from cell division, as well as the fluorescent signal from chloroplasts as a measure of total cell count.
Entire wells (1000 microliters) were taken for EdU detection at three time points; analyses were of duplicate samples of each of two replicate wells.

maize A188 protoplasts = experiment: Protoplast viability (Evans blue staining / light microscope / hemocytometer); assay type: cell-based; settings: for Viability (%): 1 mM GSH; for protoplast viability: 288 hours
Description: (§1) Separate suspensions of maize B73 and A188 protoplasts (2×10^5 cells per milliliter) were prepared in YPIM B-liquid medium containing various combinations of the added salts calcium chloride, potassium ascorbate, and magnesium chloride or magnesium sulfate. One-half milliliter aliquots of the suspensions were dispensed into a 24-well microtiter plate in the arrangement shown in Table 2, which lists the concentrations of calcium chloride (“Ca”), potassium ascorbate (“A”), and magnesium chloride (“MgCl2”) or magnesium sulfate (“MgSO4”) in millimolar values.
(§2) Viability was judged by Evans blue staining and visualization under a light microscope.
(§3) Separate suspensions of maize A188 protoplasts (2×10^5 cells per milliliter) were prepared in YPIM B-liquid medium containing calcium chloride at 0 or 50 millimolar. One-half milliliter aliquots of the suspensions were dispensed into a 24-well microtiter plate.
(§4) Viability was judged by visualization under a light microscope.
(§5) Separate suspensions of maize B73 and A188 protoplasts (2×10^5 cells per milliliter) were prepared in PIM B-liquid medium (identical to YPIM B-medium except with the 6-benzylaminopurine substituted with 0.022 milligrams/L thidiazuron) containing calcium chloride added at 0 or 50 millimolar. One-half milliliter aliquots of the suspensions were dispensed into a 24-well microtiter plate.
(§6) Separate suspensions of maize B73 and A188 protoplasts (2×10^5 cells per milliliter) were prepared in YPIM B-liquid medium containing (a) calcium chloride added at 100 millimolar, or (b) 1 millimolar glutathione, or (c) no added calcium or glutathione. One-milliliter aliquots of the suspensions were dispensed into a 24-well microtiter plate. At 16, 40, 64, and 136 hours of culture, 50-microliter samples were taken for hemocytometer analysis from each well; for the plates containing maize A188 protoplasts, parallel 50-microliter samples were taken from a replicate well at 16, 40, and 64 hours of culture for quantification using a Cellometer cell counter (Nexcelom Bioscience LLC, Lawrence, Mass.).
(§7) Viability was determined by Evans blue staining and quantification using a hemocytometer. Under conditions with high concentrations of calcium, Evans blue can create precipitates that interfere with cell counting; to prevent this, 5 microliters of an EDTA solution was added to the samples from the wells containing 100 millimolar calcium chloride immediately prior to staining.

[1] = system: maize (Zea mays) alcohol dehydrogenase ADH1 gene; experiment: HDR/NHEJ editing of endogenous gene in maize protoplasts (PCR, KpnI/NdeI); assay type: cell-based; settings: 0.5 mM GSH
Description: A ribonucleoprotein (RNP) was prepared with Cas9 nuclease (Aldevron, Fargo, N. Dak.) and a guide RNA complex designed to edit the first ADH1 exon, consisting of a crRNA (ZmADH1-B) with the sequence
Integrated DNA Technologies, Coralville, Iowa); the donor ssDNA contained three phosphorothioate linkages at each terminus (i.e., the three linkages between the most distal four bases on either end of the strand), and contained a KpnI restriction enzyme digestion site at nucleotide positions 67-72 (shown as underlined text). A double-stranded DNA (purchased from Integrated DNA Technologies, Coralville, Iowa) was designed with a forward strand having the sequence
wherein each strand was phosphorylated on the 5′ end and contained two phosphorothioate linkages at each terminus (i.e., the two linkages between the most distal three bases on either end of the strand); this contained an NdeI restriction site located at nucleotide positions 16-21 of the forward strand (SEQ ID NO:16), shown as underlined font. Insertion of this sequence into the first exon of the target gene ADH1 serves as a proxy readout for efficiency of the NHEJ pathway (i.e., non-homologous repair of the expected DSB).
(§8) Transfection procedures were essentially as described in Example 13. In a first experiment, cells were treated with the HDR ssDNA donor containing a Kpn1 restriction site, or with no donor polynucleotide. After transfection with the editing reagents, the washed and pelleted cells were then resuspended in PIM containing 50 millimolar CaCl2, and then plated in 6-well plates coated with 5% calf serum. The plates were sealed with Parafilm™ and allowed to incubate at 37 degrees Celsius for 1 hour. For the hypoxia treatment, the Parafilm™ was removed and the plates were then placed in a hypoxia chamber having about 5% oxygen by volume at 26 degrees Celsius in the dark. For normoxia treatment, the Parafilm™ was kept in place and the plates were incubated at 26 degrees Celsius in a growth chamber in the dark. Cells were harvested 48 hours and HDR editing efficacy was quantitated by PCR analysis using Phusion™ Flash PCR (Thermo Fisher Scientific, Waltham, Mass.).
as §8, with “In” for “Transfection procedures were essentially as described in Example 13. In”, “second” for “first”, “Kpn1 restriction site, or with the NHEJ dsDNA containing an NdeI” for “Kpn1”, “CaCl2, with or without 0.5 millimolar glutathione (GSH),” for “CaCl2,”, “subjected to” for “HDR editing efficacy was quantitated by”

maize B73 protoplasts = settings: for Viability (%): 1 mM GSH; for protoplast viability: 288 hours
Description: as §1, §2
as §3, with “maize B73, winter wheat, soy, and strawberry” for “maize A188”, “at 0, 50,” for “at 0”, “or 100” for “or 50”
Viability at day 8 of culture was judged by visualization under a light microscope.
Viability at day 13 was judged by Evans blue staining and visualization under a light microscope.
as §5, with “B73” for “B73 and A188”, “at 0, 5, 20, 40, 70,” for “at 0”, “or 100” for “or 50”
Viability was judged by visualization under a light microscope at day 7 and at day 14 of culture.
as §5, §4, §6, §7

[2] = system: maize B73 and A188 protoplasts; experiment: Protoplast viability, statements pooled for both maize lines; assay type: cell-based; settings: after 288 hours, various ascorbate concentrations (0.1-1 mM)
Description: as §1, §2
as §6, with “One-milliliter aliquots of the suspensions were dispensed into a 24-well microtiter plate.” left out
Viability was determined by Evans blue staining and quantification using a hemocytometer. […]

[3] = 100 mM added salt, YPIM B- medium

Structure (SMILES): N[C@@H](CCC(=O)N[C@@H](CS)C(=O)NCC(=O)O)C(=O)O [glutathione]
- EdU staining mean % (maize B104 protoplasts; O2 5%): 18.4%
- EdU staining mean % (maize B104 protoplasts; O2 21%): 16.9%
- change in rate of cell division (% EdU) (maize B104 protoplasts; addition of 0.5 millimolar glutathione, hypoxic conditions, 100 mM Ca^2+): little change
- increase in rate of cell division (% EdU) (maize B104 protoplasts; addition of 0.5 millimolar glutathione, normal atmospheric oxygen, 100 mM Ca^2+): about 2 fold
- Viability (%) (maize A188 protoplasts; 0 hours, hemocytometer): 90%
- Viability (%) (maize A188 protoplasts; 16 hours): 69%
- Viability (%) (maize A188 protoplasts; 40 hours): 50%
- Viability (%) (maize A188 protoplasts; 64 hours): 50%
- Viability (%) (maize A188 protoplasts; 136 hours): 42%
- % KpnI (HDR) ([1]; editing reagents: Null): 0.00%
- % NdeI (NHEJ) ([1]; editing reagents: Null): 0.00%
- % KpnI (HDR) ([1]; editing reagents: RNP only): 0.00%
- % NdeI (NHEJ) ([1]; editing reagents: RNP only): 0.00%
- % KpnI (HDR) ([1]; editing reagents: RNP plus HDR donor): 5.0%
- % KpnI (HDR) ([1]; editing reagents: RNP plus HDR donor, listed as GSH): 5.00%
- % NdeI (NHEJ) ([1]; editing reagents: RNP plus NHEJ donor): about 15%
- % NdeI (NHEJ) ([1]; editing reagents: RNP plus NHEJ donor, listed as GSH): 15.01%
- Viability (%) (maize B73 protoplasts; 0 hours, hemocytometer): 90%
- Viability (%) (maize B73 protoplasts; 16 hours): 77%
- Viability (%) (maize B73 protoplasts; 40 hours): 72%
- Viability (%) (maize B73 protoplasts; 64 hours): 48%
- Viability (%) (maize B73 protoplasts; 136 hours): 24%

Structure (SMILES): [Cl-].[Cl-].[Mg+2] [magnesium chloride]
- protoplast viability (maize A188 protoplasts; [3]): about 70%
- protoplast viability (maize B73 protoplasts; [3]): much higher viability than any well
- plant protoplast viability (plant protoplasts; about 40 millimolar or about 50 millimolar): Even higher levels of plant protoplast viability
- protoplast viability (plant protoplasts; between or about 50 to about 100 millimolar, several titration experiments): greatest improvement in protoplast viability
- plant protoplast viability (plant protoplasts; culture medium contains about 30 millimolar): Beneficial effects

Structure (SMILES): O=S(=O)([O-])[O-].[Mg+2] [magnesium sulfate]
- protoplast viability (maize A188 protoplasts; 50 mM added salt, YPIM B- medium): 30-40%
- protoplast viability (maize A188 protoplasts; 50 or 100 mM): only a modest improvement
- protoplast viability (maize B73 protoplasts; 50 or 100 mM): only a modest improvement

Structure (SMILES): O=C1O[C@H]([C@@H](O)CO)C([O-])=C1O.[K+] [potassium ascorbate]
- viability [2]: only slight effects
- protoplast viability (maize A188 protoplasts; 0.2 millimolar and above added to wells with added calcium): slightly decrease viability
